What all share (format): in vivo, rat
Experiment [1] relates to Western diet fed Sprague Dawley rats. As to the kind of experiment: Fasted plasma triglyceride (TG), Western diet fed rats, oral dosing. Particulars: oral monotherapy, 4 hour fast, 2 hours post-dose. As to the method: (§1) A randomized, vehicle-controlled, 8-parallel arm study was conducted in male Sprague-Dawley rats (Charles River (Boston, MA)) to obtain circulating and hepatic TG levels. Standard laboratory conditions were used to house 96 rats (˜200 g); they were double housed and kept under 12:12-hour reverse light-dark schedule (lights off at 8:00 AM). Rats were randomized into chow or Western diet groups and dose groups upon arrival and were given a 14-day lead-in period on either standard rat chow or Western diet prior to the start of the study. Standard Laboratory Rodent chow diet, 5053, was from LabDiet (PMI, St Louis, Missouri). Western Diet, D12079Bi, was from Research Diets (New Brunswick, New Jersey).
For these studies, vehicle was prepared to make a 0.5% (wt/volume) of methyl cellulose (MC, Sigma Aldrich; 274429) in deionized water. The stock solutions with either Compound A (prepared from the tris salt) or Compound D were prepared with the respective compound to provide a concentration such that 10 ml of the solution would deliver the desired mg/kg dosage amount, where the average weight of the rats used was about 200 g.
Starting on Day 1 of the study, rats were dosed orally (10 mL/kg) with either vehicle control (0.5% MC (wt/volume %) in dionized water), low or high doses of Compound A (1 mg/kg or 10 mg/kg QD, respectively), low or high doses of Compound D (5 mg/kg or 30 mg/kg BID respectively), or co-administration of low doses (Compound A at 1 mg/kg QD and Compound D at 5 mg/kg BID), or co-administration of high doses (Compound A at 10 mg/kg QD and Compound D at 30 mg/kg BID)
Fasted plasma analytes: Blood for determining fasted plasma TG was collected after a 4 hour fast, 2 hours post-dose (2 hours into the dark cycle) via lateral tail vein, transferred to BD Microtainer tubes coated with K2EDTA (PN365974), and centrifuged at 4° C. The resulting plasma samples were then analyzed on a Siemens Chemistry XPT clinical analyzer (Malven, PA) using Siemens triglycerides 2 assay reagents (ref 10335892).

For experiment [2], the system named is acetyl-CoA carboxylase (ACC1). As to the kind of experiment: Hepatic lipogenic gene expression (qPCR), Western diet fed rats: ACC1. Conditions: Actb housekeeping gene, Day 28 liver. The method, then:
as §1
Starting on Day 1 of the study, rats were dosed orally (10 mL/kg) with either vehicle control (0.5% MC (wt/volume %) in dionized water), low or high doses of Compound A (1 mg/kg or 10 mg/kg QD, respectively), low or high doses of Compound D (5 mg/kg or 30 mg/kg BID respectively), or co-administration of low doses (Compound A at 1 mg/kg QD and Compound D at 5 mg/kg BID), or co-administration of high doses (Compound A at 10 mg/kg QD and Compound D at 30 mg/kg BID) […]
Another portion of the pulverized liver was processed and analyzed for lipogenic gene expression. Rat taqman probes against ACC1, FASN, SCD1, PCSK9 and SREBP-1c were all assessed using Actb as housekeeping gene on qPCR.
On the technique in general: Quantitative PCR measures a nucleic acid by following its amplification.

In experiment [3] the test system is alpha smooth muscle actin (αSMA). In words: Hepatic αSMA immunohistochemistry, CDAHFD fed rats. Particulars: twice daily for 6 weeks; Compound A 5 mg/kg, Compound D 30 mg/kg, or co-administration; 12 weeks on CDAHFD. As to the method:
(§2) A randomized, vehicle-controlled, 5-parallel arm study was conducted in male Wistar-Han rats (Charles River (Boston, MA)) fed a choline-deficient and high fat diet (CDAHFD) (Research diets; A16092003) to identify differences in improvements in markers of hepatic inflammation and fibrosis when administering either Compound A or Compound D alone as monotherapy or in combination. Standard laboratory conditions were used to house 60 rats (˜200 g); they were double housed and kept under 12:12-hour reverse light-dark schedule (lights off at 8:00 AM). Rats were fed choline deficient and high fat diet (CDAHFD) beginning 6-weeks prior to initiation of the study. Rats, randomized into 4 dosing groups (n=12/group), received twice daily administration of vehicle, Compound A (5 mg/kg) monotherapy, Compound D (30 mg/kg) monotherapy, or co-administration Compound A (5 mg/kg) and Compound D (30 mg/kg) for a period of 6-weeks. […] Histology was assessed following 6-weeks of drug administration which corresponded to 12 weeks on the CDAHFD. […]
(§3) Following the 12-weeks on CDAHFD, the animals were sacrificed by CO2 asphyxiation. […] A portion of the pulverized liver sample from each animal was processed and analyzed for gene expression markers of fibrogenesis. Rat taqman probes against […]SMA and COL1A1 were all assessed using Actb as housekeeping gene on qPCR. […]

The test system of experiment [4] is Collagen. As to the kind of experiment: Hepatic Picrosirius red staining (collagen), CDAHFD fed rats. Conditions: twice daily for 6 weeks; Compound A 5 mg/kg, Compound D 30 mg/kg, or co-administration; 12 weeks on CDAHFD. As to the method: as §2, §3
The test system of experiment [5] is alpha smooth muscle actin (αSMA). As to the kind of experiment: Hepatic αSMA gene expression (qPCR), CDAHFD fed rats. Conditions: twice daily for 6 weeks, Compound A 5 mg/kg, Compound D 30 mg/kg, or co-administration, Actb. As to the method:
as §2
(§4) Following the 12-weeks on CDAHFD, the animals were sacrificed by CO2 asphyxiation. […] A portion of the pulverized liver sample from each animal was processed and analyzed for gene expression markers of fibrogenesis. Rat taqman probes against […]SMA and COL1A1 were all assessed using Actb as housekeeping gene on qPCR.

The subject of experiment [6] is COL1A1. As to the kind of experiment: Hepatic COL1A1 gene expression (qPCR), CDAHFD fed rats. Particulars: twice daily for 6 weeks, Compound A 5 mg/kg, Compound D 30 mg/kg, or co-administration, Actb. As to the method: as §2, §4

Turning to `COc1cc(C(=O)N2CCC3(CC2)CC(=O)c2c(cnn2C(C)C)C3)cc(-c2ccc(C(=O)O)cc2)n1` [Compound A, 4-(4-(1-isopropyl-7-oxo-1,4,6,7-tetrahydrospiro[indazole-5,4′-piperidine]-1′-carbonyl)-6-methoxypyridin-2-yl)benzoic acid], the “increase in fasted plasma TG, relative to vehicle administered Western diet fed rats” value in experiment [1] (high dose (Compound A 10 mg/kg QD)) was 1.7 fold; in experiment [1] (low dose (Compound A 1 mg/kg QD)) it was 2.4 fold. Further, the “hepatic ACC1 gene expression relative to Western Diet fed and vehicle treated animals” value in experiment [2] is given as “trended to further increase”. The “reduction of liver αSMA staining” value in experiment [3] amounted to 41%. The “reduction of Picosrius red (PSR) staining” value in experiment [4] was determined as 26%. Also, the “hepatic αSMA gene expression” value in experiment [5] is listed as “reduced”. Moreover, the “hepatic collagen A1A (COL1A1) gene expression” value in experiment [6] is on record as “reduced”.
On to `CCOc1cccnc1Oc1cncc(-c2ncc(C(=O)N[C@H]3CCOC3)cn2)c1` [Compound D, (S)-2-(5-((3-ethoxypyridin-2-yl)oxy)pyridin-3-yl)-N-(tetrahydrofuran-3-yl)pyrimidine-5-carboxamide], for which the “reduction of fasted plasma TG, relative to vehicle administered Western diet fed rats” value in experiment [1] (high dose (Compound D 30 mg/kg BID)) amounted to 35%; in experiment [1] (low dose (Compound D 5 mg/kg BID)), 20%. Also, the “hepatic ACC1 gene expression relative to Western Diet fed and vehicle treated animals” value in experiment [2] is reported as “decreased expression”. Also, the “reduction of liver αSMA staining” value in experiment [3] is reported as 23%. In addition, in experiment [4], the “reduction of Picosrius red (PSR) staining” value is on record as 20%. For the same compound, in experiment [5], the “hepatic αSMA gene expression” value is “reduced”. Besides, the “hepatic collagen A1A (COL1A1) gene expression” value in experiment [6] was “reduced”.

(Values after patent publication US12247022B2, “Combinations for treatment of NASH/NAFLD and related diseases” (Pfizer Inc., priority 2018, dated 2025).)
